≈ marks a conversion by molar mass, not a printed value.
Key:
Vero = assay: Cytotoxicity against african green monkey Vero cells; format: cell-based; conditions: Chlorocebus sabaeus
[1] = Selectivity index, EC50 for against african green monkey Vero cells to IC50 for Mycobacterium tuberculosis H37Rv; format: functional
[2] = system: Mycobacterium tuberculosis; assay: Antimycobacterial activity against Mycobacterium tuberculosis H37Rv; format: functional, organism-based

SMILES	EC50 (Vero) [µg/mL]	Ratio [1]	IC50 [2] [µg/mL]	IC90 [2] [µM]
N=c1c2ncnc(Nc3ccccc3)c2ncn1NC(=O)c1ccccc1	2.35 (≈ 6.58 µM)	0.38	3.65 (≈ 10.2 µM)	17.4
N=c1c2ncnc(Nc3ccccc3)c2ncn1NC(=O)c1ccco1			3.16 (≈ 9.1 µM)	14
CC(=O)Nn1cnc2c(Nc3ccccc3)ncnc2c1=N			44.9 (≈ 152 µM)	> 314
N#Cc1ccc(Nc2ncnc3c(=N)n(NC(=O)c4ccncc4)cnc23)cc1			17.2 (≈ 44.9 µM)	> 240
COc1ccc(Nc2ncnc3c(=N)n(NC(=O)c4ccccc4)cnc23)cc1	2.12 (≈ 5.47 µM)	0.23	4.11 (≈ 10.6 µM)	23.4
COc1ccc(Nc2ncnc3c(=N)n(NC(=O)c4ccco4)cnc23)cc1			3.56 (≈ 9.43 µM)	261
COc1ccc(Nc2ncnc3c(=N)n(NC(C)=O)cnc23)cc1			46.5 (≈ 143 µM)	> 298
N=c1c2ncnc(Nc3ccccc3)c2ncn1NC(=O)c1ccncc1	4.37 (≈ 12.2 µM)	0.57	4.3 (≈ 12 µM)	21
CC(=O)Nn1cnc2c(Nc3ccc(C#N)cc3)ncnc2c1=N			42.1 (≈ 131 µM)	> 311
N#Cc1ccc(Nc2ncnc3c(=N)n(NC(=O)c4ccccc4)cnc23)cc1			2.47 (≈ 6.46 µM)	36.1
N=c1c2ncnc(Nc3ccc(F)cc3)c2ncn1NC(=O)c1ccncc1	1.53 (≈ 4.07 µM)	0.43	0.91 (≈ 2.42 µM)	9.12
N=c1c2ncnc(Nc3ccc(F)cc3)c2ncn1NC(=O)c1ccccc1	3.05 (≈ 8.13 µM)	0.6	2.92 (≈ 7.78 µM)	13.5
N=c1c2ncnc(Nc3ccc(F)cc3)c2ncn1NC(=O)c1ccco1			2.17 (≈ 5.94 µM)	9.77
CC(=O)Nn1cnc2c(Nc3ccc(F)cc3)ncnc2c1=N			18.7 (≈ 59.7 µM)	91.4
COc1ccc(Nc2ncnc3c(=N)n(NC(=O)c4ccncc4)cnc23)cc1	1.15 (≈ 2.96 µM)	0.27	1.59 (≈ 4.09 µM)	9.49
